DC50 data for 26 compounds are collected here from patent US20250388565A1, “ESTROGEN RECEPTOR ALPHA DEGRADERS AND METHODS OF USE THEREOF” (Relay Therapeutics, Inc., priority 2022, published 2025).

Structures are written as SMILES.

As a reminder, the DC50 is the midpoint of the concentration-degradation curve.

The target in this experiment is T1, ERα protein (HiBiT-tagged) in ESR1_HiBiT KI MCF7 cells (Homo sapiens, UniProt P03372).
T1 sequence (P03372 1-595): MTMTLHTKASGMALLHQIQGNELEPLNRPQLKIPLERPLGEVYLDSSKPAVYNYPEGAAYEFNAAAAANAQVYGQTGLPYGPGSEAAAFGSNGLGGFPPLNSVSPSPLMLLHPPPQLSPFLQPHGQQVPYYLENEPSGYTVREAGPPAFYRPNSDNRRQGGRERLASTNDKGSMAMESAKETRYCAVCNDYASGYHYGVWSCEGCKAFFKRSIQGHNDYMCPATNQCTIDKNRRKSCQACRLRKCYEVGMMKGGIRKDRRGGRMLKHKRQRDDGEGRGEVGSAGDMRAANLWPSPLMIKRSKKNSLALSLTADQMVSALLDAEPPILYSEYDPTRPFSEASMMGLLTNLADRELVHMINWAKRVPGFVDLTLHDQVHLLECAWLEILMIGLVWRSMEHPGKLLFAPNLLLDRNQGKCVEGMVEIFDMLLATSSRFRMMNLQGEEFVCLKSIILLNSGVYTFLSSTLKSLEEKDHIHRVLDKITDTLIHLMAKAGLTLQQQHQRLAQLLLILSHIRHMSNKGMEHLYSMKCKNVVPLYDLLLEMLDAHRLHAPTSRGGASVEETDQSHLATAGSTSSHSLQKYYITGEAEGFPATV
In words: Nano Glo HiBiT Lytic Degradation Assay. It counts as cell-based. The conditions noted are these: 6 hours with compound, 14-point dose response 1:3, bell-shape curve fit, half-maximal effect of first Hill model, read-out: MCF7 ESR1 HiBiT - (DC50). The method, boiled down: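 Lytic Nano-Glo HiBiT luminescence quantified ERα remaining after a 6 h, 37° C compound exposure of MCF7 cells carrying endogenous HiBiT-tagged ESR1. Dosing used 14 threefold dilutions from a 10 mM DMSO stock (0.1% DMSO final), run in duplicate. Signals were corrected for cell-free background and expressed relative to DMSO, and DC50 came from a bell-shaped curve fit (first Hill model half-maximum).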
As to `O=C1CC[C@H](N2Cc3cc(N4CCN(CC5CCN(c6ccc([C@@H]7c8ccc(O)cc8CO[C@@H]7c7ccc(C(F)(F)F)cc7)cc6)CC5)CC4)ccc3C2=O)C(=O)N1` (single isomer, unassigned) [Compound I-36], the DC50 came to 80 nM. As for `O=C1CC[C@H](N2Cc3cc(N4CCN(CC5CCN(c6ccc([C@H]7c8ccc(O)cc8CC[C@H]7c7cccc(OC(F)(F)F)c7)cc6)CC5)CC4)ccc3C2=O)C(=O)N1` (single isomer, unassigned) [Compound I-110], the DC50 stood at 0.155 nM. Next, `C[C@@]1(N2Cc3cc(N4CCN(CC5CCN(c6ccc([C@@H]7c8ccc(O)cc8CC[C@@H]7c7ccccc7)cc6)CC5)CC4)ccc3C2=O)CCC(=O)NC1=O` (single isomer, unassigned) [II-58]: at least 10000 nM; `C[C@@H]1CN(c2ccc3c(c2)CN([C@H]2CCC(=O)NC2=O)C3=O)CCN1CC1CCN(c2ccc([C@H]3c4ccc(O)cc4CC[C@H]3c3ccccc3)cc2)CC1` (single isomer, unassigned) [II-15]: at least 10000 nM; `O=C1CC[C@H](N2Cc3cc(N4CCN(CC5CCN(c6cc(F)c([C@@H]7c8ccc(O)cc8CC[C@@H]7C7CCCCC7)c(F)c6)CC5)CC4)ccc3C2=O)C(=O)N1` [Compound I-119, (S)-3-(5-(4-((1-(4-((1S,2R)-2-cyclohexyl-6-hydroxy-1,2,3,4-tetrahydronaphthalen-1-yl)-3,5-difluorophenyl)piperidin-4-yl)methyl)piperazin-1-yl)-1-oxoisoindolin-2-yl)piperidine-2,6-dione]: 6 nM. The figure for `O=C1CCC(c2ccc(N3CCN(C4CCN(c5ccc([C@H]6c7ccc(O)cc7CC[C@H]6c6ccccc6)cc5)CC4)CC3)cc2)C(=O)N1` (single isomer, unassigned) [Compound I-41] is 370 nM. For `CC[C@H]1CCc2cc(O)ccc2[C@H]1c1ccc(N2CCC(CN3CCN(c4ccc5c(c4)CN([C@H]4CCC(=O)NC4=O)C5=O)CC3)CC2)cc1` (single isomer, unassigned) [Compound I-111], the 50% degradation concentration (DC50) amounted to 332 nM.

As for `O=C1CCC(n2cc3cc(N4CCN(CC5CCN(c6ccc([C@@H]7c8ccc(O)cc8CC[C@@H]7c7ccccc7)cc6)CC5)CC4)ccc3n2)C(=O)N1` (some centres unmarked) [Compound I-301], the DC50 turned out to be 1 nM. The figure for `Cc1cc(N2CCC(CN3CCN(c4ccc5c(c4)CN([C@H]4CCC(=O)NC4=O)C5=O)CC3)CC2)ccc1[C@H]1c2ccc(O)cc2CC[C@H]1C1CCCCC1` [Compound I-140, (S)-3-(5-(4-((1-(4-((1S,2S)-2-cyclohexyl-6-hydroxy-1,2,3,4-tetrahydronaphthalen-1-yl)-3-methylphenyl)piperidin-4-yl)methyl)piperazin-1-yl)-1-oxoisoindolin-2-yl)piperidine-2,6-dione] is at least 10000 nM; for `O=C1CC[C@H](N2Cc3cc(N4CCN(CC5CC6CCC(C5)N6c5ccc([C@@H]6c7ccc(O)cc7CC[C@@H]6c6ccccc6)cc5)CC4)ccc3C2=O)C(=O)N1` (single isomer, unassigned) [II-47] it is 2 nM.

As to `Cc1cc(F)ccc1[C@H]1CC(F)(F)c2cc(O)ccc2[C@H]1c1ccc(N2CCC(CN3CCN(c4ccc5c(c4)CN([C@H]4CCC(=O)NC4=O)C5=O)CC3)CC2)cc1` [Compound I-326, (S)-3-(5-(4-((1-(4-((1R,2S)-4,4-difluoro-2-(4-fluoro-2-methylphenyl)-6-hydroxy-1,2,3,4-tetrahydronaphthalen-1-yl)phenyl)piperidin-4-yl)methyl)piperazin-1-yl)-1-oxoisoindolin-2-yl)piperidine-2,6-dione], the half-maximal degradation concentration (DC50) was 0.58 nM. Consider `C[C@@H](C1CC1)[C@H]1CC(F)(F)c2cc(O)ccc2[C@H]1c1ccc(N2CCC(CN3CCN(c4ccc5c(c4)CN([C@H]4CCC(=O)NC4=O)C5=O)CC3)CC2)cc1` (single isomer, unassigned) [Compound I-227], for which the half-maximal degradation concentration (DC50) worked out at 4 nM. Next, `Cc1ccc2c(c1)CC[C@H](c1ccccc1)[C@@H]2c1ccc(N2CCC(CN3CCN(c4ccc5c(c4)CN([C@H]4CCC(=O)NC4=O)C5=O)CC3)CC2)cc1` [Compound I-50, (S)-3-(5-(4-((1-(4-((1R,2S)-6-methyl-2-phenyl-1,2,3,4-tetrahydronaphthalen-1-yl)phenyl)piperidin-4-yl)methyl)piperazin-1-yl)-1-oxoisoindolin-2-yl)piperidine-2,6-dione]: at least 10000 nM.

For `[2H]c1c([2H])c([2H])c([C@H]2CC(F)(F)c3cc(O)ccc3[C@H]2c2ccc(N3CCC(CN4CCN(c5ccc6c(c5)CN([C@H]5CCC(=O)NC5=O)C6=O)CC4)CC3)cc2)c([2H])c1[2H]` [Compound I-335, (S)-3-(5-(4-((1-(4-((1R,2S)-4,4-difluoro-6-hydroxy-2-(phenyl-d5)-1,2,3,4-tetrahydronaphthalen-1-yl)phenyl)piperidin-4-yl)methyl)piperazin-1-yl)-1-oxoisoindolin-2-yl)piperidine-2,6-dione], the 50% degradation concentration (DC50) turned out to be 0.36 nM. Consider `Cc1cc([C@H]2OCc3cc(O)ccc3[C@H]2c2ccc(N3CCC(CN4CCN(c5ccc6c(c5)CN([C@H]5CCC(=O)NC5=O)C6=O)CC4)CC3)cc2)ccc1F` [Compound I-375, (S)-3-(5-(4-((1-(4-((3S,4R)-3-(4-fluoro-3-methylphenyl)-7-hydroxyisochroman-4-yl)phenyl)piperidin-4-yl)methyl)piperazin-1-yl)-1-oxoisoindolin-2-yl)piperidine-2,6-dione], for which the DC50 is 0.89 nM. With `O=C1CC[C@H](N2Cc3cc(N4CCN(CC5CCN(c6ccc([C@H]7c8ccc(O)cc8C(F)(F)C[C@H]7C7CCCCC7)cc6)CC5)CC4)ccc3C2=O)C(=O)N1` [Compound I-98, (S)-3-(5-(4-((1-(4-((1S,2S)-2-cyclohexyl-4,4-difluoro-6-hydroxy-1,2,3,4-tetrahydronaphthalen-1-yl)phenyl)piperidin-4-yl)methyl)piperazin-1-yl)-1-oxoisoindolin-2-yl)piperidine-2,6-dione], the DC50 is at least 10000 nM.

For `O=C1CC[C@H](N2Cc3cc(N4CCN(CC5CCN(c6ccc([C@@H]7c8ccc(O)cc8CC[C@@H]7C7CCC8(CC7)CC8)cc6)CC5)CC4)ccc3C2=O)C(=O)N1` [Compound I-146], the DC50 was 3 nM. Regarding `O=C1CC[C@H](N2Cc3cc(N4CCN(CC5CCN(c6ccc([C@@H]7c8ccc(O)cc8CO[C@@H]7c7ccccc7)cc6)CC5)CC4)ccc3C2=O)C(=O)N1` [Compound I-3, (S)-3-(5-(4-((1-(4-((3S,4R)-7-hydroxy-3-phenylisochroman-4-yl)phenyl)piperidin-4-yl)methyl)piperazin-1-yl)-1-oxoisoindolin-2-yl)piperidine-2,6-dione], the half-maximal degradation concentration (DC50) came to 0.27 nM. The figure for `O=C1CC[C@H](N2Cc3cc(N4CCN(CC5CCN(c6ccc([C@H]7c8ccc(O)cc8CC[C@H]7C7CCC8(CC7)CC8)cc6)CC5)CC4)ccc3C2=O)C(=O)N1` [Compound I-145] is at least 10000 nM; for `Cc1ccc([C@@H]2CCc3cc(O)ccc3[C@@H]2c2ccc(N3CCC(CN4CCN(c5ccc6c(c5)CN([C@H]5CCC(=O)NC5=O)C6=O)CC4)CC3)cc2)cc1` (single isomer, unassigned) [II-37] it is 46 nM. Next, `C[C@@H]1Cc2cc(O)ccc2[C@@H](c2ccc(N3CCC(CN4CCN(c5ccc6c(c5)CN([C@H]5CCC(=O)NC5=O)C6=O)CC4)CC3)cc2)[C@H]1c1ccccc1` [Compound I-175, (S)-3-(5-(4-((1-(4-((1R,2S,3R)-6-hydroxy-3-methyl-2-phenyl-1,2,3,4-tetrahydronaphthalen-1-yl)phenyl)piperidin-4-yl)methyl)piperazin-1-yl)-1-oxoisoindolin-2-yl)piperidine-2,6-dione]: 0.77 nM; `O=C1CC[C@H](N2Cc3cc(N4CCN(CC5CCN(c6ccc([C@H]7c8ccc(O)cc8CC[C@H]7C7CCCCC7)nc6)CC5)CC4)ccc3C2=O)C(=O)N1` [Compound I-150, (S)-3-(5-(4-((1-(6-((1R,2S)-2-cyclohexyl-6-hydroxy-1,2,3,4-tetrahydronaphthalen-1-yl)pyridin-3-yl)piperidin-4-yl)methyl)piperazin-1-yl)-1-oxoisoindolin-2-yl)piperidine-2,6-dione]: at least 10000 nM; `O=C1CC[C@H](N2Cc3cc(N4CCN(CC5CCN(c6ccc([C@@H]7c8ccc(O)cc8CO[C@@H]7c7ccccc7)cc6F)CC5)CC4)ccc3C2=O)C(=O)N1` (single isomer, unassigned) [Compound I-381]: 0.16 nM. Next, `CN(CC1CCN(c2ccc([C@H]3c4ccc(O)cc4CC[C@H]3c3ccccc3)cc2)CC1)C1CN(c2ccc3c(c2)CN(C2CCC(=O)NC2=O)C3=O)C1` (single isomer, unassigned) [II-14]: at least 10000 nM; `O=C1CC[C@H](N2Cc3cc(N4CCN(C[C@@H]5CCN(c6ccc([C@@H]7c8ccc(O)cc8CC[C@@H]7c7ccccc7)cc6)C5)CC4)ccc3C2=O)C(=O)N1` (single isomer, unassigned) [II-32]: at least 10000 nM. On to `O=C1CC[C@H](N2Cc3cc(N4C[C@H]5C[C@@H]4CN5CC4CCN(c5ccc([C@@H]6c7ccc(O)cc7CC[C@@H]6c6ccccc6)cc5)CC4)ccc3C2=O)C(=O)N1` (single isomer, unassigned) [II-5], for which the half-maximal degradation concentration (DC50) was 2 nM.
